Laboratory results as given in publication PMC7824111, “Targeting Cytokinin Homeostasis in Rapid Cycling Brassica rapa with Plant Growth Regulators INCYDE and TD-K” (Plants, 2020).

What was measured:
CRE1/AHK4 = CRE1/AHK4 (Arabidopsis thaliana, UniProt Q9C5U0); test: E. coli receptor activation assay; type: cell-based
AHK3 = target: T1, AHK3 (Arabidopsis thaliana, UniProt Q9C5U1); test: E. coli receptor activation assay; type: cell-based
T1 sequence (Q9C5U1 1-1036): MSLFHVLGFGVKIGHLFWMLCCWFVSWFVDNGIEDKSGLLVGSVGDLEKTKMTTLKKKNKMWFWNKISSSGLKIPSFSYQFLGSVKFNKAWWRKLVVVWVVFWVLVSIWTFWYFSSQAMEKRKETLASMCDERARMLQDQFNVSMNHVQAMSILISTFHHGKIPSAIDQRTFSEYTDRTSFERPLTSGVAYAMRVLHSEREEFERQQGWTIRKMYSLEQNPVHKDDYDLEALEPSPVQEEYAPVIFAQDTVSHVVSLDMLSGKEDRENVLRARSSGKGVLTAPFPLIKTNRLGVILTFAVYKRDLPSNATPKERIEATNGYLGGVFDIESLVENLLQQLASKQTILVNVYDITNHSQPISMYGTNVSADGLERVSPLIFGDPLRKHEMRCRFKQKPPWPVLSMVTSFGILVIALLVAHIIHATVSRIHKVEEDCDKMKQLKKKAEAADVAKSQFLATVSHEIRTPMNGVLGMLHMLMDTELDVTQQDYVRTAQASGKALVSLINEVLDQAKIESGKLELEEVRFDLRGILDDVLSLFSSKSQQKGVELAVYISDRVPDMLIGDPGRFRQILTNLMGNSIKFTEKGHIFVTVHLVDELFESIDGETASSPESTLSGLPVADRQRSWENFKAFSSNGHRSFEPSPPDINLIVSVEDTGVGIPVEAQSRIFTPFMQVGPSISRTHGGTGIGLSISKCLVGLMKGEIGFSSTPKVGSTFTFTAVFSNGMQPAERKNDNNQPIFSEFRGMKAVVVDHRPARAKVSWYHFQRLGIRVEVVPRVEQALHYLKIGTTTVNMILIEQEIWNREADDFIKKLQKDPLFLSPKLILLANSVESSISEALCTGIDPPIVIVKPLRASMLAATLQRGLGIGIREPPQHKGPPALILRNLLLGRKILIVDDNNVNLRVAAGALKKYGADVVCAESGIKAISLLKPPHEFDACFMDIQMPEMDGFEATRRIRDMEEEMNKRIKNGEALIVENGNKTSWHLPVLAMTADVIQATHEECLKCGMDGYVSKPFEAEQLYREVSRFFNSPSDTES

CRE1/AHK4, sequence (Q9C5U0 whole entry): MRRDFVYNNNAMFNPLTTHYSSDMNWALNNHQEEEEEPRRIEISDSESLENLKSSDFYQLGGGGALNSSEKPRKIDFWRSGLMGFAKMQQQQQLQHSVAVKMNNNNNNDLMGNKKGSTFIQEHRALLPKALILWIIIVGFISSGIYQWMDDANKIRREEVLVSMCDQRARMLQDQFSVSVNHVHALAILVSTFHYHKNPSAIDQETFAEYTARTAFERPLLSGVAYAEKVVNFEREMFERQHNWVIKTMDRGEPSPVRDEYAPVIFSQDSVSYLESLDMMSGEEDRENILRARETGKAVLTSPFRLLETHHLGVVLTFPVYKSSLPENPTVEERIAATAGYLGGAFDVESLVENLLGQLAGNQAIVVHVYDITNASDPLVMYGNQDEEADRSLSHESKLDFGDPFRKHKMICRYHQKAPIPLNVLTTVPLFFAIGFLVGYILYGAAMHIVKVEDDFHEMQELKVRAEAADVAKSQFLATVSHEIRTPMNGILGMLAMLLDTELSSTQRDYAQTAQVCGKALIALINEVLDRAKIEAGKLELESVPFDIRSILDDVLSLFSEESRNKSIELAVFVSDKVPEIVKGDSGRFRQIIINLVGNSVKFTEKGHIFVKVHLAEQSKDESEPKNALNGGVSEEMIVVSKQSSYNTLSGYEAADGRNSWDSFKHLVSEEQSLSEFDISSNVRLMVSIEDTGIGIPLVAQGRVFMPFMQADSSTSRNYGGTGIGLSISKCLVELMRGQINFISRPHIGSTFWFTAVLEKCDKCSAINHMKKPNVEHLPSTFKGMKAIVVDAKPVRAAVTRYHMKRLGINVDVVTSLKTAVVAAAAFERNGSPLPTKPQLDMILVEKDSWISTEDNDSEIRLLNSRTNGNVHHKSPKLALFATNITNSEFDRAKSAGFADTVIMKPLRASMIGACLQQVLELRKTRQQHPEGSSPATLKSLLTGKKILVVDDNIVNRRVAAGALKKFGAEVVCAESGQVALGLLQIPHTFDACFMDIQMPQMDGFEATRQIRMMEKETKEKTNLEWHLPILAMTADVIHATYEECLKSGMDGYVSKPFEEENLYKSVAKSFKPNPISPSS

Compound	E. coli receptor activation assay (CRE1/AHK4)	E. coli receptor activation assay (AHK3)
O=C(NCc1ccccc1)Nc1cnns1 [TD-BA]	~ 50 μM	–
O=C(Nc1ccccc1)Nc1cnns1 [TDZ, 1-phenyl-3-(1,2,3-thiadiazol-5-yl) urea]	~ 1 μM	~ 10 nM
C/C(=C\CNc1ncnc2[nH]cnc12)CO [tZ, trans-zeatin]	~ 1 μM	~ 10 nM
